Several values for one entry are separate records, joined by “and”; a condition that tells them apart may be missing. Equal values may be shown once. Read-outs that look alike come from different tables or passages of the source.
Legend:
[1] = sponsored clinical trials: safety and radiation dose of bolus injection; format: in vivo, human
Method: Such buffers include, but are not limited to, ethanol (solvent), sodium hydroxide and acetic acid (pH adjustment), sodium chloride injection (isotonic vehicle). The formulation to be administered as a bolus injection has been shown in sponsored clinical trials to be safe containing a dose of up to about 8 mCi to 10 mCi of radiolabeled DaT2020 and delivered in a total volume of about 2.5 mL to about 5 mL.
The radioactivity of the dose of radiolabeled DaT2020 or of its radiolabeled derivatives, can be determined by one with skill in the art, e.g. by a nuclear medicine imaging technician. In addition, the total radioactivity of the actual administered dose is of relevance and not the volume administered to achieve this dose. The exact radioactive dose of the tracer administered is determined by calculating the difference between the radioactivity in the syringe and delivery system before and after injection. After the dose is delivered, the syringe is filled with a volume of saline equal to the administered dose volume. The syringe content is recounted under the same conditions as used to determine the dose; separately. […]

[2] = biological target: T1, DAT in the striatum (Homo sapiens, UniProt Q01959); assay: SPECT imaging of radiotracer binding to DAT after i.v. injection; format: in vivo; set-up: from tissue; host or cells: striatum of living patients (in vivo SPECT)
T1 sequence (Q01959 whole entry): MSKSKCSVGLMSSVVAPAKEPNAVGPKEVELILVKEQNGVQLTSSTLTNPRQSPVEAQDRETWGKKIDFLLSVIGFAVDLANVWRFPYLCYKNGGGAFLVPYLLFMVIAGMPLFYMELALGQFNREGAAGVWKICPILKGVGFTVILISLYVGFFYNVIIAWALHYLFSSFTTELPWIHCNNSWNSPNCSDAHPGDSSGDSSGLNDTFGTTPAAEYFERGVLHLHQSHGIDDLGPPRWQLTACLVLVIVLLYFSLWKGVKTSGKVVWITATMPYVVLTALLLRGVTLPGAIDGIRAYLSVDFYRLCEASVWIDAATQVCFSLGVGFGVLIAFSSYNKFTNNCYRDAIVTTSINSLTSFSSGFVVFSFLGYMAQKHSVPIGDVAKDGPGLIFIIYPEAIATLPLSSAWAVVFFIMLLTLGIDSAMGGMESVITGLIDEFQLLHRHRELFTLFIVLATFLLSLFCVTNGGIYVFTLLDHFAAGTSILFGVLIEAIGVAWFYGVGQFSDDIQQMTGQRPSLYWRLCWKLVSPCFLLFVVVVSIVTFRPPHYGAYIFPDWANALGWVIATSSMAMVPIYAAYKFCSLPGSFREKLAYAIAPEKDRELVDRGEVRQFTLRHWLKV
Excerpt: More recently, the SN to striatum pathway of a live patient has become assessible by viewing images of the striatum obtained by various noninvasive imaging techniques. Such non-invasive methods use single photon emission computed tomography (SPECT) assessment measuring the uptake/binding of a radiolabeled imagining agent that binds to dopamine transporters (DAT) in the striatum. Currently, the only SPECT radiopharmaceutical approved for use in the United States, the European Union, and Canada is DaTSCAN® (N-ω-fluoropropyl-2β-carbomethoxy-3β-(4-iodophenyl) nortropane), which is radiolabeled with ^123I. After injection of DaTSCAN, the patient must wait 3 hr for its uptake into systemic circulation, and transition through the blood brain barrier into the parenchyma of the brain tissue until it reaches stable binding to DAT. At that point, radioactivity (counts) can be collected and quantified, and a visual image can be acquired via SPECT. The visual image is compiled for reading by experts who then determine if there is evidence of DAT density loss in the striatum. In the case of a patient with Parkinson's disease, an asymmetrical pattern of binding in the striatum is observed in the image, whereas in the non-parkinsonian tremor patient, the pattern is visible as bilateral and symmetrical (i.e., “normal) (Lewis et al. (2012) Practitioner 1748: 21-24). This information is used by treating physicians in determining diagnosis and subsequent treatment.
SPECT and PET are procedures in which the isotope bound to DaT2020 or derivatives thereof is measured once the agent has been administered and has reached stable binding in the ROI. Once entering the blood stream, it travels throughout the body (e.g., brain, liver, kidney, heart, lungs, and the peripheral vascular system) and binds to DAT in various regions of the body including the striatum. The time it takes to reach stable binding (to eliminate background noise to form a clearer image) depends on the ROI and the depth of the tissue penetrated by the agent.
In SPECT, the single emitted photon passes into the camera and strikes a scintillation crystal which, in turn, is viewed by a large number of photomultiplier tubes. The output voltages generated by the photomultiplier tubes are fed to a position circuit which produces four output signals. These signals contain information about the position and intensity of where the photon struck the crystal (scintillations). These signals (which “unblank” or “light up” the receiver, e.g., a cathode ray oscilloscope) for each photon are then fed into the memory circuitry of a computer and stored. […] Therefore, one can obtain counts and process them for quantitation at any single moment or over varying periods of time during a single scan session. In order to construct an image, a scan session must collect millions of counts over time in order to produce enough detail for a human reader to evaluate. […]
SPECT acquisition is performed on a SPECT/CT or stand-alone SPECT with at least two imaging heads fitted with collimators (parallel-beam and fan beam collimators with manufacturer specified (or measured according to NEMA standards) planar system resolution of <8 mm FWHM (in ‘air’ at 10 cm distance). Raw projection data (or counts) are acquired as described in Djang et al. (2013) Nuclear Med. Mol. Imaging 47(2):73-80), step-and-shoot mode with angle increments of 3° can be used. […]

[3] = biological target: DAT (Homo sapiens, UniProt Q01959); settings: package insert; cited from earlier work
Sequence of DAT (Q01959 whole entry, species assumed): as the sequence (Q01959 whole entry) above

[4] = biological target: T1, DAT in the striatum; settings: cited from earlier work; for time after injection until binding to striatal DAT becomes stable: post-injection, before SPECT imaging

SMILES | safety of bolus injection formulation ([1]; dose of up to about 8 mCi to 10 mCi, total volume about 2.5 mL to about 5 mL) | effective dose ([1]; for 5 mCi of radiolabeled DaT2020) | time after administration at which stable binding occurs ([2]; after administration, scanning can begin) [min] | time at which captured energy (counts) stabilizes ([2]; during scan after administration) [min] | SPECT image availability after i.v. injection time ([2]; post i.v. injection) [min] | time of wash-out from DAT receptors in dopaminergic neurons ([2]; post i.v. injection) [min] | scan time over which sufficient data for an image are collected ([2]; scan starting 15 min after administration) [min] | DAT sites bound for every one SERT site [3] | half-life ([4]; 123I-labeled tracer) [h] | earliest start of scanning procedure after administration ([4]; after administration) | duration for which binding remains stable ([4]; after stable binding is reached 3 hr post-injection) [h] | time of wash-out from DAT receptors in dopaminergic neurons ([4]; post i.v. injection, comparator, 'or more') [min] | SPECT image availability after i.v. injection time ([4]; post i.v. injection, comparator) [min] | time after injection until binding to striatal DAT becomes stable [4] | time after injection until binding to striatal DAT becomes stable ([4]; listed as [^123I]-FP-CIT) [h] | fraction of tracer available for DAT transporter binding in the brain tissue ([4]; rest bound to transporters other than DAT, package insert)
COC(=O)C1C(c2ccc(F)cc2)CC2CCC1N2C/C=C/[123I] (stereo not drawn) [DaT2020, [^123I]-E-2β-carbomethoxy-3β-(4-fluorophenyl)-N-(3-iodo-E-allyl) nortropane] | safe | approximately 4.3 mSv | 15 | 14 to 18 | 45 to 60 | ≤ 60 | 30 |  |  |  |  |  |  |  |  | 
COC(=O)[C@H]1[C@@H](c2ccc(I)cc2)C[C@@H]2CC[C@H]1N2CCCF [DaTSCAN, N-ω-fluoropropyl-2β-carbomethoxy-3β-(4-iodophenyl) nortropane] |  |  |  |  |  |  |  | two to three | 13.2 | at least 180 min | 3 | 180 to 240 | 180 to 240 | 3 h and 3 to 6 h | 3 | about 7%

From patent publication US20230001026A1, “PHAR[…] UNITS AND METHODS FOR CONCOMITANT ADMINISTRATION OF RADIOTRACERS” (LikeMinds, Inc., priority 2019, published 2023)
